# Laboratory results from PMC4686662 (Nature Communications, 2015).
# Read-outs that look alike come from different tables or passages of the source.
# Assays:
# S. aureus = assay: MIC, broth microdilution, S. aureus strains; type: cell-based; settings: Staphylococcus aureus
# Experimental: (§1) Antibacterial minimum inhibitory concentrations (MICs) were determined from two independent experiments using broth microdilution methods according to Clinical and Laboratory Standards Institute guidelines. […] Bacterial strains used were from GSK's culture collection.
# (§2) The quinolone resistance-determining region (QRDR) or full-length of gyrA/B and parC/E were amplified by PCR from the resistant mutants and DNA sequenced using the following primer pairs (all 5′–3′ sequence): for S. aureus gyrA: […] and […]; gyrB […] and […]; parC […] and […], and parE […] and […], respectively. For S. pneumoniae gyrA: […] and […]; gyrB: […] and […]; parC: […] and […], and parE: […] and […], respectively. […] Mutations in etoposide-resistant transformants were confirmed by PCR and DNA analysis.
# human Top2β = system: human Top2β; design: method as in PMID 26149691; settings: cited from earlier work
# E. coli Topo IV [1] = target: T1, E. coli Topo IV (Escherichia coli, UniProt P0AFI2+P20083); settings: read-out: IC50, E. coli Topo IV decatanation; supplementary ref 3; cited from earlier work
# T1 construct: purchased Inspiralis
# S. aureus DNA gyrase [2] = target: T2, S. aureus DNA gyrase (Staphylococcus aureus, UniProt P0A0K8+P20831); assay: biochemical; type: biochemical; settings: for Type of DNA breaks stabilized with S. aureus DNA gyrase: each compound 100 μM, supercoiled pBR322, full-length S. aureus gyrase
# T2 construct: Full-length S. aureus GyrA and GyrB were expressed in E. coli and purified as described; made in house; host or cells: E. coli
# Experimental: (§3) BlueJuice gel loading buffer (Invitrogen) was added. […] See Supplementary Fig. 15 for representative gels.
# E. coli DNA gyrase [3] = target: T3, E. coli DNA gyrase (Escherichia coli, UniProt P0AES4+P0AES6); settings: concentrations showing similar intensities of DSB
# E. coli DNA gyrase [4] = target: T3, E. coli DNA gyrase; assay: E. coli DNA gyrase supercoiling inhibition assay; type: biochemical; design: E. coli full-length DNA gyrase subunits A and B (both N-terminally 6-His-tagged) produced in-house; 6-His (N); made in house
# Experimental: (§4) In vitro topoisomerase activity assays were performed as described with minor modifications. […] For E. coli DNA gyrase supercoiling assays, 3.4 nM of wild-type E. coli DNA gyrase (Inspiralis) was incubated with 500 ng relaxed pBR322 plasmid DNA in a 30-μl reaction containing the same buffer mixture but without the potassium glutamate. For S. aureus topo IV decatenation assays, 4 nM of S. aureus topo IV was incubated with 200 ng kinetoplast DNA in buffer as described by the manufacturer (Inspiralis). In E. coli topo IV decatenation assay, 0.125 nM of E. coli topo IV was incubated with kDNA as described in the protocol (Inspiralis). Human Top2α relaxation assays were performed as reported using 2 nM of enzyme. […] Reactions were analysed by electrophoresis in 1% w/v agarose gels followed by ethidium bromide staining. IC50 values, defined as the amount of compound that causes half-maximal inhibition, were determined by quantifying the DNA products using densitometry (VisionWorks, UVP) and fitting the data by nonlinear regression with GraFit software (Erythacus). Compound IC50 values reported are the averages of two to three determinations.
# Haemophilus influenzae = assay: MIC, broth microdilution, H. influenzae strains; type: cell-based; design: unit not given here
# Experimental: as §1
# E. coli = assay: MIC, broth microdilution, E. coli strains; type: cell-based, Escherichia coli
# Experimental: as §1
# Acinetobacter baumannii = assay: MIC, broth microdilution, A. baumannii strains; type: cell-based; design: unit not given here; settings: A. baumannii ACM1015 adeABC adeIJK (footnote c)
# Experimental: as §1
# Human Top2α [5] = target: T4, Human Top2α (Homo sapiens, UniProt P11388); assay: DNA cleavage assay with human Top2α
# Experimental: as §3
# Human Top2α [6] = target: T4, Human Top2α; assay: Human Top2α relaxation inhibition assay; type: biochemical
# Klebsiella pneumoniae = assay: MIC, broth microdilution, K. pneumoniae strains; type: cell-based; design: unit not given here; settings: Klebsiella pneumoniae 1161486 tolC
# Experimental: as §1
# S. pneumoniae = assay: MIC, broth microdilution, S. pneumoniae strains; type: cell-based; settings: Streptococcus pneumoniae
# Experimental: as §1, §2
# S. aureus Topo IV [7] = target: T5, S. aureus Topo IV (Staphylococcus aureus, UniProt P0C1S7+P0C1U9); assay: S. aureus topo IV decatenation inhibition assay; type: biochemical
# T5 construct: purchased Inspiralis
# Experimental: as §4
# S. aureus DNA gyrase [8] = target: T2, S. aureus DNA gyrase; assay: S. aureus DNA gyrase supercoiling inhibition assay; type: biochemical
# Experimental: as §4
# E. coli Topo IV [9] = target: T1, E. coli Topo IV; assay: E. coli topo IV decatenation inhibition assay; type: biochemical
# Experimental: as §4
# S. aureus Topo IV [10] = target: T5, S. aureus Topo IV; design: method as in earlier work; settings: read-out: IC50, S. aureus Topo IV decatanation; supplementary ref 4; cited from earlier work
# [11] = S. aureus RN4220 (parent), read-out: MIC
# [12] = S. aureus RN4220 GyrB ΔT403-K406, read-out: MIC
# [13] = Escherichia coli, E. coli 7623, read-out: MIC
# [14] = Escherichia coli, E. coli 7623 ΔtolC
# [15] = S. pneumoniae 1629, read-out: MIC
# [16] = S. pneumoniae 1629 GyrB ΔL407–S410, read-out: MIC
Compound,MIC (S. aureus; [11]),MIC (S. aureus; S. aureus RN4220 GyrB D437A),MIC (S. aureus; S. aureus RN4220 GyrB D437N),MIC (S. aureus; S. aureus RN4220 GyrB D437V),MIC (S. aureus; S. aureus RN4220 GyrB P456L),MIC (S. aureus; [12]),further results
"COc1cccc2c1C(=O)c1c(O)c3c(c(O)c1C2=O)C[C@@](O)(C(=O)CO)C[C@@H]3O[C@H]1C[C@H](N)[C@H](O)[C@H](C)O1 [Doxorubicin, doxorubicin]",8 µg/mL,8 µg/mL,8 µg/mL,8 µg/mL,4 µg/mL,3 µg/mL,
"COc1cc([C@@H]2c3cc4c(cc3[C@@H](O[C@@H]3O[C@@H]5CO[C@@H](c6cccs6)O[C@H]5[C@H](O)[C@H]3O)[C@H]3COC(=O)[C@H]23)OCO4)cc(OC)c1O [Teniposide, teniposide]",16 µg/mL,32 µg/mL,32 µg/mL,64 µg/mL,32 µg/mL,32 µg/mL,
"Cc1c2ccncc2c(C)c2c1[nH]c1ccccc12 [Ellipticine, ellipticine]",1 µg/mL,1 µg/mL,1 µg/mL,1 µg/mL,1 µg/mL,1 µg/mL,
COc1ccc2ncc(C#N)c(CCN3CCC(NCc4cc5c(cn4)OCS5)CC3)c2c1 [GSK299423],0.016 µg/mL,0.125 µg/mL,0.125 µg/mL,0.125 µg/mL,0.125 µg/mL,0.016 µg/mL,
C[C@@H]1CN2c3c(cc4c(N5C(=O)OC[C@@H]5C)noc4c3F)CC3(C(=O)NC(=O)NC3=O)[C@H]2[C@H](C)O1 [AZD9014],,,,,,,Activity against human Top2β (human Top2β): low activity
"COc1cc(NS(C)(=O)=O)ccc1Nc1c2ccccc2nc2ccccc12 [Amsacrine, amsacrine]",> 128 µg/mL,32 µg/mL,> 128 µg/mL,64 µg/mL,32 µg/mL,128 µg/mL,
"C[C@@H]1CN2c3ccc([N+](=O)[O-])cc3CC3(C(=O)NC(=O)NC3=O)[C@H]2[C@H](C)O1 [QPT-1, quinoline pyrimidine trione-1]",0.5 µg/mL,2 µg/mL,4 µg/mL,,,,IC50 (E. coli Topo IV [1]): 30 µM; EC50 (S. aureus DNA gyrase [2]): 8.8 µM; Type of DNA breaks stabilized with S. aureus DNA gyrase (S. aureus DNA gyrase [2]): DSB; DNA cleavage activity relative to the (+) enantiomer (more active) (E. coli DNA gyrase [3]): ~ 30 fold; IC50 (E. coli DNA gyrase [4]): 0.65 µM; MIC (Haemophilus influenzae; Haemophilus influenzae H128): ≤ 0.125; MIC (Haemophilus influenzae; Haemophilus influenzae H128 acrB): ≤ 0.125; MIC (E. coli; Escherichia coli 7623 tolC): 0.063 µg/mL; MIC (E. coli; [13]): 8 µg/mL; MIC (E. coli; [14]): 0.063 µg/mL; MIC (Acinetobacter baumannii): 0.125; Activity against human Top2α (Human Top2α [5]): does not have detectable activity; EC50 (Human Top2α [5]): > 800 µM; IC50 (Human Top2α [6]): > 500 µM; MIC (Klebsiella pneumoniae): 0.125
"COc1cc([C@@H]2c3cc4c(cc3[C@@H](O[C@@H]3O[C@@H]5CO[C@@H](C)O[C@H]5[C@H](O)[C@H]3O)[C@H]3COC(=O)[C@H]23)OCO4)cc(OC)c1O [Etoposide, etoposide]",64 µg/mL,256 µg/mL,128 µg/mL,256 µg/mL,256 µg/mL,256 µg/mL,"EC50 (S. aureus DNA gyrase [2]): 107 µM; Type of DNA breaks stabilized with S. aureus DNA gyrase (S. aureus DNA gyrase [2]): both SSB and DSB; IC50 (E. coli DNA gyrase [4]): 134 µM; Plateau of fitted IC50 curve, % of maximal inhibition (E. coli DNA gyrase [4]; E. coli DNA gyrase supercoiling): approx. 60%; MIC (E. coli; [13]): > 256 µg/mL; MIC (E. coli; [14]): 0.75 µg/mL; MIC (S. pneumoniae; [15]): 2 µg/mL; MIC (S. pneumoniae; S. pneumoniae 1629 GyrB R447C): 16 µg/mL; MIC (S. pneumoniae; [16]): 16 µg/mL; IC50 (S. aureus Topo IV [7]): 246 µM; Plateau of fitted IC50 curve, % of maximal inhibition (S. aureus Topo IV [7]): ~50%; IC50 (S. aureus DNA gyrase [8]): 48 µM; Plateau of fitted IC50 curve, % of maximal inhibition (S. aureus DNA gyrase [8]; S. aureus DNA gyrase supercoiling): ~75%; Plateau of fitted IC50 curve, % of maximal inhibition (E. coli Topo IV [9]; E. coli Topo IV decatenation): ~75%; IC50 (E. coli Topo IV [9]; read-out: IC50, E. coli Topo IV decatanation): 107 µM"
"COc1c(N2C[C@@H]3CCCN[C@@H]3C2)c(F)cc2c(=O)c(C(=O)O)cn(C3CC3)c12 [Moxifloxacin, moxifloxacin]",0.063 µg/mL,0.063 µg/mL,0.063 µg/mL,,,,Type of DNA breaks stabilized with S. aureus DNA gyrase (S. aureus DNA gyrase [2]): DSB; MIC (E. coli; [13]): ≤ 0.016 µg/mL; MIC (E. coli; [14]): ≤ 0.016 µg/mL; MIC (S. pneumoniae; [15]): 0.031 µg/mL; MIC (S. pneumoniae; S. pneumoniae 1629 GyrB R447C): 0.094 µg/mL; MIC (S. pneumoniae; [16]): 0.047 µg/mL; IC50 (S. aureus Topo IV [10]): 3.8 µM
"COc1cccc2c1C(=O)c1c(O)c3c(c(O)c1C2=O)C[C@@](O)(C(C)=O)C[C@@H]3O[C@H]1C[C@H](N)[C@H](O)[C@H](C)O1 [Daunorubicin, daunorubicin]",8 µg/mL,8 µg/mL,8 µg/mL,8 µg/mL,4 µg/mL,1.5 µg/mL,
"O=C1c2c(O)ccc(O)c2C(=O)c2c(NCCNCCO)ccc(NCCNCCO)c21 [Mitoxantrone, mitoxantrone]",32 µg/mL,8 µg/mL,32 µg/mL,8 µg/mL,4 µg/mL,6 µg/mL,
